The text below walks through data of patent US12503436B2, “Compounds and compositions for treating conditions associated with STING activity” (NOVARTIS PHARMA AG, priority 2021, dated 2025).

The structures appear in SMILES notation.

The test addresses STING (Homo sapiens, UniProt Q86WV6, G230A/H232R/R293Q/R71H). Nature of the test: STING reporter assay in THP1-Dual KO-IFNAR2 cells (2′3′cGAMP stimulation, luciferase reporter). The conditions noted are these: 15 μM 2′3′cGAMP stimulation, 24 h, read-out: Pharmaron, THP1_IFNAR2 STING 24 h Luci Normalized: GeoMean EC50. It counts as cell-based. In a few lines:
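EC50 from secreted luciferase (QUANTI-Luc Plus luminescence of supernatant) after 24 h at 37 °C, 5% CO2. Cells: THP1-Dual KO-IFNAR2, treated with compound (0.0017-100 μM final) plus lipofected 2′3′cGAMP at 15 μM final.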
Background: A reporter such as luciferase makes a cellular process visible.

Chain of STING (Q86WV6 whole entry R71H/G230A/H232R/R293Q): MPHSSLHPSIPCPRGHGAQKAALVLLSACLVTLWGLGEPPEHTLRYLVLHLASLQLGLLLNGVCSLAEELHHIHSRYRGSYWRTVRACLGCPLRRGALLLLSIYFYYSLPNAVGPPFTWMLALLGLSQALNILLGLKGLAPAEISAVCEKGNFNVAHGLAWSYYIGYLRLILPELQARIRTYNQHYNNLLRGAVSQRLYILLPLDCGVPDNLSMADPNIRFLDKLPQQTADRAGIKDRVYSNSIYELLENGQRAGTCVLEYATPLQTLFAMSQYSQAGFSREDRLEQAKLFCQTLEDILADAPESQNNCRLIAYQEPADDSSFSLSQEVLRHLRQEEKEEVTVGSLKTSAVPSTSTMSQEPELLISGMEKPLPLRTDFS

On to `N#CC1(C(=O)Nc2c[nH]c3ccc(OCCc4ccc(C(F)(F)F)cc4)cc23)CC1` [Compound 193, 1-cyano-N-(5-(4-(trifluoromethyl)phenethoxy)-1H-indol-3-yl)cyclopropane-1-carboxamide], for which the EC50 lay within 200 to 1000 nM.
For the compound `CC(=O)Nc1c[nH]c2ccc(OCC3Cc4cnn(CC(F)(F)F)c4C3)cc12` (centres unmarked) [Compound 444, N-(5-((1-(2,2,2-trifluoroethyl)-1,4,5,6-tetrahydrocyclopenta[c]pyrazol-5-yl)methoxy)-1H-indol-3-yl)acetamide], the EC50 fell in the range of 5000 to 100000 nM.
Turning to `CC1(C(=O)Nc2c[nH]c3ccc(OCC[C@@H]4C[C@@H]5CN(CC(F)(F)F)C[C@@H]5C4)cc23)CCC1` [Compound 369, 1-methyl-N-(5-(2-((3aR,5r,6aS)-2-(2,2,2-trifluoroethyl)octahydrocyclopenta[c]pyrrol-5-yl)ethoxy)-1H-indol-3-yl)cyclobutane-1-carboxamide], the 50% effective concentration (EC50) lay within 200 to 1000 nM.
The same measure for `CC(=O)Nc1c[nH]c2ccc(CCOc3ccc(-c4csc(C)n4)cc3)cc12` [Compound 475, N-(5-{2-[4-(2-methyl-1,3-thiazol-4-yl)phenoxy]ethyl} -1H-indol-3-yl)acetamide]: 1000 to 5000 nM; for `CO[C@H]1C[C@@H](C(=O)Nc2c[nH]c3ccc(O[C@H]4C[C@H](c5ccc(C(F)(F)F)cc5)C4)cc23)C1` [Compound 246, cis-3-methoxy-N-(5-(trans-3-(4-(trifluoromethyl)phenyl)cyclobutoxy)-1H-indol-3-yl)cyclobutane-1-carboxamide]: 40 to 200 nM; for `CC1(C(=O)Nc2c[nH]c3ccc(O[C@H]4C[C@H](c5ccc(C(F)(F)F)cc5)C4)cc23)CCC1` [Compound 564, 1-methyl-N-(5-(trans-3-(4-(trifluoromethyl)phenyl)cyclobutoxy)-1H-indol-3-yl)cyclobutane-1-carboxamide]: 40 to 200 nM.
`CC(=O)Nc1c[nH]c2ccc(CCOc3ccc(C(F)(F)F)c(Br)c3)cc12` [Compound 543, N-(5-(2-(3-bromo-4-(trifluoromethyl)phenoxy)ethyl)-1H-indol-3-yl)acetamide]: the EC50 was 200 to 1000 nM.
Regarding `CC[C@H](O)C(=O)Nc1c[nH]c2ccc(OCCc3ccc(C(F)(F)F)cc3)cc12` [Compound 430, (S)-2-hydroxy-N-(5-(4-(trifluoromethyl)phenethoxy)-1H-indol-3-yl)butanamide], the EC50 was in the range of 40 to 200 nM.
The same measure for `CC(=O)Nc1c[nH]c2ccc(CCOc3ccc(C(F)(F)F)cc3C#N)cc12` [Compound 440, N-(5-{2-[2-cyano-4-(trifluoromethyl)phenoxy]ethyl}-1H-indol-3-yl)acetamide]: 1000 to 5000 nM.
As to `O=C(Nc1c[nH]c2ccc(OCC[C@@H]3C[C@@H]4CN(CC(F)(F)F)C[C@@H]4C3)cc12)C1CCOCC1` [Compound 152, N-(5-{2-[(3aR,5S,6aS)-2-(2,2,2-trifluoroethyl)-octahydrocyclopenta[c]pyrrol-5-yl]ethoxy}-1H-indol-3-yl)oxane-4-carboxamide], the EC50 was 200 to 1000 nM.
On to `CC1(C(=O)Nc2c[nH]c3ccc(CCCc4ccc(C(F)(F)F)cn4)cc23)CC1` [Compound 464, 1-methyl-N-(5-(3-(5-(trifluoromethyl)pyridin-2-yl)propyl)-1H-indol-3-yl)cyclopropane-1-carboxamide], for which the EC50 was 200 to 1000 nM.
`CC(=O)Nc1c[nH]c2ccc(OCCC34CC(c5ccccc5)(C3)C4)cc12` [Compound 262, N-(5-(2-(3-phenylbicyclo[1.1.1]pentan-1-yl)ethoxy)-1H-indol-3-yl)acetamide]: the EC50 was 40 to 200 nM.
In the case of `CC(=O)Nc1c[nH]c2ccc(CCSc3ccc(C(F)(F)F)cc3)cc12` [Compound 256, N-(5-(2-((4-(trifluoromethyl)phenyl)thio)ethyl)-1H-indol-3-yl)acetamide], the concentration giving a half-maximal response (EC50) was 200 to 1000 nM.
The same measure for `CC1(C(=O)Nc2c[nH]c3ccc(OCCc4ccc(C(F)(F)F)cc4)cc23)CCOCC1` [Compound 237, 4-methyl-N-(5-(4-(trifluoromethyl)phenethoxy)-1H-indol-3-yl)tetrahydro-2H-pyran-4-carboxamide]: 40 to 200 nM; for `CC(=O)Nc1c[nH]c2ccc(CCOc3ccc(C4CCOCC4)cc3)cc12` [Compound 226, N-(5-(2-(4-(tetrahydro-2H-pyran-4-yl)phenoxy)ethyl)-1H-indol-3-yl)acetamide]: 1000 to 5000 nM; for `O=C(Nc1c[nH]c2ccc(CCNc3ccc(C(F)(F)F)cn3)cc12)C1CCC1` [Compound 134, N-(5-(2-((5-(trifluoromethyl)pyridin-2-yl)amino)ethyl)-1H-indol-3-yl)cyclobutanecarboxamide]: 200 to 1000 nM.
As for `CC(=O)Nc1c[nH]c2ccc(OCC[C@@H]3C[C@@H]4CN(C)C[C@@H]4C3)cc12` [Compound 292, N-(5-(2-((3aR,5r,6aS)-2-methyloctahydrocyclopenta[c]pyrrol-5-yl)ethoxy)-1H-indol-3-yl)acetamide], the EC50 fell in the range of 5000 to 100000 nM.
In the case of `CC(=O)Nc1c[nH]c2ccc(OCCc3sc(C(F)(F)F)nc3C)cc12` [Compound 484, N-(5-(2-(4-methyl-2-(trifluoromethyl)thiazol-5-yl)ethoxy)-1H-indol-3-yl)acetamide], the EC50 was in the range of 1000 to 5000 nM.
Consider `CC(=O)Nc1c[nH]c2ccc(CCOc3ccc(OC(F)(F)F)c(F)c3)cc12` [Compound 438, N-(5-{2-[3-fluoro-4-(trifluoromethoxy)phenoxy]ethyl}-1H-indol-3-yl)acetamide], for which the concentration for a half-maximal effect (EC50) was 40 to 200 nM.
As for `CC(C)(O)CC(=O)Nc1c[nH]c2ccc(OCCc3ccc(C(F)(F)F)cc3)cc12` [Compound 519, 3-hydroxy-3-methyl-N-(5-(4-(trifluoromethyl)phenethoxy)-1H-indol-3-yl)butanamide], the EC50 is 40 to 200 nM.
For `CC1(C(=O)Nc2c[nH]c3ccc(OCCc4ccc(C(F)(F)F)cc4)cc23)CCOC1` (centres unmarked) [Compound 189, 3-methyl-N-(5-(4-(trifluoromethyl)phenethoxy)-1H-indol-3-yl)tetrahydrofuran-3-carboxamide], the EC50 was 200 to 1000 nM.
For the compound `COC1CC(C(=O)Nc2c[nH]c3ccc(O[C@H]4C[C@H](c5ccc(C(F)(F)F)cc5)C4)cc23)C1` (stereo partly drawn) [Compound 572, 3-methoxy-N-(5-(trans-3-(4-(trifluoromethyl)phenyl)cyclobutoxy)-1H-indol-3-yl)cyclobutane-1-carboxamide], the EC50 is 40 to 200 nM.
For `CC(=O)Nc1c[nH]c2ncc(COCc3ccc(C(F)(F)F)cc3)cc12` [Compound 271, N-(5-(((4-(trifluoromethyl)benzyl)oxy)methyl)-1H-pyrrolo[2,3-b]pyridin-3-yl)acetamide], the EC50 fell in the range of 1000 to 5000 nM.
Regarding `CC(=O)Nc1c[nH]c2ccc(CC(O)Cc3ccc(C(F)(F)F)cc3)cc12` (centres unmarked) [Compound 284, N-(5-(2-hydroxy-3-(4-(trifluoromethyl)phenyl)propyl)-1H-indol-3-yl)acetamide], the concentration for a half-maximal effect (EC50) lay in the range of 200 to 1000 nM.
Take `COCCOCC(=O)Nc1c[nH]c2ccc(OCC[C@@H]3C[C@@H]4CN(CC(F)(F)F)C[C@@H]4C3)cc12` [Compound 408, 2-(2-methoxyethoxy)-N-(5-(2-((3aR,5r,6aS)-2-(2,2,2-trifluoroethyl)octahydrocyclopenta[c]pyrrol-5-yl)ethoxy)-1H-indol-3-yl)acetamide]: the concentration giving a half-maximal response (EC50) lay within 40 to 200 nM.
Turning to `CC1(C(=O)Nc2c[nH]c3ccc(CCOc4ccc(C(F)(F)F)cc4)cc23)CC1` [Compound 399, 1-methyl-N-(5-(2-(4-(trifluoromethyl)phenoxy)ethyl)-1H-indol-3-yl)cyclopropane-1-carboxamide], the EC50 was in the range of 200 to 1000 nM.
As to `O=C(Nc1c[nH]c2ccc(OCc3ccc(C(F)(F)F)cc3)cc12)C1CC(F)(F)C1` [Compound 584, 3,3-difluoro-N-(5-((4-(trifluoromethyl)benzyl)oxy)-1H-indol-3-yl)cyclobutane-1-carboxamide], the EC50 fell in the range of 200 to 1000 nM.
In the case of `CC(=O)Nc1c[nH]c2ccc(C#Cc3ccc(C(F)(F)F)cc3)cc12` [Compound 495, N-(5-((4-(trifluoromethyl)phenyl)ethynyl)-1H-indol-3-yl)acetamide], the EC50 is 1000 to 5000 nM.
Regarding `O=C(Nc1c[nH]c2ccc(O[C@H]3C[C@@H](c4ccc(C(F)(F)F)cc4)C3)cc12)C1CCOCC1` [Compound 365, N-(5-(cis-3-(4-(trifluoromethyl)phenyl)cyclobutoxy)-1H-indol-3-yl)tetrahydro-2H-pyran-4-carboxamide], the EC50 lay in the range of 40 to 200 nM.
`CC(=O)Nc1c(Br)[nH]c2ccc(OCCc3ccc(C(F)(F)F)cc3)cc12` [Compound 402, N-(2-bromo-5-(4-(trifluoromethyl)phenethoxy)-1H-indol-3-yl)acetamide]: the EC50 was 5000 to 100000 nM.
For `O=C(Nc1c[nH]c2ccc(OCc3ccc(C(F)(F)F)cc3)cc12)C1COC1` [Compound 381, N-(5-((4-(trifluoromethyl)benzyl)oxy)-1H-indol-3-yl)oxetane-3-carboxamide], the EC50 lay in the range of 200 to 1000 nM.
Consider `O=C(Nc1c[nH]c2ccc(OCCc3ccc(C(F)(F)F)cc3)cc12)C1CN(CCC(F)(F)F)C1` [Compound 299, N-(5-(4-(trifluoromethyl)phenethoxy)-1H-indol-3-yl)-1-(3,3,3-trifluoropropyl)azetidine-3-carboxamide], for which the EC50 lay in the range of 200 to 1000 nM.
Regarding `CC(=O)Nc1c[nH]c2ccc(O[C@H]3C[C@@H](c4ccc(C(F)(F)F)cc4)C3)cc12` [Compound 102, N-(5-(cis-3-(4-(trifluoromethyl)phenyl)cyclobutoxy)-1H-indol-3-yl)acetamide], the EC50 fell in the range of 40 to 200 nM.
As to `COC1CC(C(=O)Nc2c[nH]c3ccc(OCCc4ccc(C(F)(F)F)cc4)cc23)C1` (centres unmarked) [Compound 234, 3-methoxy-N-(5-(4-(trifluoromethyl)phenethoxy)-1H-indol-3-yl)cyclobutane-1-carboxamide], the EC50 fell in the range of 40 to 200 nM.
For the compound `O=C(Nc1c[nH]c2ccc(OCCc3ccc(C(F)(F)F)cc3)cc12)C1(F)CC1` [Compound 218, 1-fluoro-N-(5-(4-(trifluoromethyl)phenethoxy)-1H-indol-3-yl)cyclopropane-1-carboxamide], the EC50 lay within 200 to 1000 nM.

The EC50 is the concentration needed to bring the measured effect to its halfway point.
